Results: US9771389B2, “Tylosin derivatives and method for preparation thereof” (BAYER ANIMAL HEALTH GMBH, priority 2013, dated 2017)
Values after ≈ are worked out from the molar mass of the structure shown.

How the values were obtained:
[1] = test system: M. hemolytica KB345 (Tilmicosin-sensitivity strain); experiment: Paper disc assay, M. hemolytica KB345; assay type: cell-based, Mannhemia hemolytica; conditions: Table 4
Protocol: (§1) (1) Antibacterial activities against Mannheimia and Pasteurella were determined by the following steps: • 1) M. hemolytica KB345 (Tilmicosin-sensitivity strain) and M. hemolytica KB346 (Tilmicosin-low sensitivity strain) were provided. KB 345 strain stored at −80° C. was seeded to BHIB agar medium (10 mL) by using Microbank beads (Pro-Lab) and platinum nail. After statically incubating the KB 345 strain for 24 hours at 37° C., it was seeded to maintaining slant BHIB agar medium (7 mL) by using platinum loop, further statically incubated for 24 hours at 37° C. to obtain slant. One platinum loop of KB 345 strain stored at the slant was inoculated into a large test tube charged with BHIB liquid medium (10 mL) and then incubated for 24 hours at 37° C. with shaking. • 2) A paper disc (ADVANTEC, Φ:6 mm) was impregnated with a solution of test compound and dried under reduced pressure. • 3) To a melted BHIB agar medium was inoculated 1% of the broth obtained from step 1) above to prepare a test plate. After the medium set, the paper disc prepared in step 2) above was put on the plate and it was incubated at 37° C. • 4) After one day, the inhibition zone diameter and clarity (A to E) were determined. For KB346 strain, the same procedures were repeated.

[2] = test system: M. hemolytica KB346 (Tilmicosin-low sensitivity strain); experiment: Paper disc assay, M. hemolytica KB346; assay type: cell-based, Mannhemia hemolytica; conditions: Table 5
Protocol: as §1

[3] = test system: Mannheimia haemolytica, 3 isolates; experiment: MIC against Mannheimia haemolytica isolates; assay type: cell-based; conditions: for MIC: Mannheimia haemolytica, 3ISOLATES, 3 Mannheimia haemolytica isolates, broth dilution method, read-out: Range of minimum inhibitory concentrations (MIC)
Protocol: (§2) Minimal inhibitory concentrations (MICs) were determined against the most prevalent pathogens in cattle (Mannheimia Haemolytica, 3 isolates) and swine (A. pleuropneumoniae, 6 isolates). In addition the activity of several compounds was tested against two bacterial species, i.e. Mannheimia haemolytica and Actinobacillus pleuropneumoniae, which are considered as the most important bacterial respiratory pathogens in cattle and swine, respectively.

[4] = test system: Actinobacillus pleuropneumoniae, 6 isolates; experiment: MIC against Actinobacillus pleuropneumoniae isolates; assay type: cell-based; conditions: for MIC: 6ISOLATES, 6 Actinobacillus pleuropneumoniae isolates, broth dilution method, read-out: Range of minimum inhibitory concentrations (MIC)
Protocol: as §2

SMILES	MIC [4] [µg/mL]	Inhibition zone ([1]; 3 mg/6 mm disk) [mm]	Inhibition zone ([1]; 10 mg/6 mm disk) [mm]	Inhibition zone ([1]; 30 mg/6 mm disk) [mm]	Inhibition zone ([1]; 100 mg/6 mm disk) [mm]	Inhibition zone ([2]; 100 mg/6 mm disk) [mm]	MIC [3] [µg/mL]	other results
CCC1OC(=O)CC(O)C(C)C(OC2OC(C)C(O)C(N(C)C)C2O)C(CC=O)CC(C)C(=O)C=CC(C)=CC1CN=[N+]=[N-] (stereo not drawn) [YT107, 23-azido-23-deoxo-5-O-mycaminosyltylonolide]		12.0	16.0	18.0	21.5	15.0		Inhibition zone ([2]; 30 mg/6 mm disk): 10.5 mm
CCC1OC(=O)CC(O)C(C)C(OC2OC(C)C(O)C(N(C)C)C2O)C(CC=O)CC(C)C(=O)C=CC(C)=CC1CI (stereo not drawn) [YT111]		11.5	15.5	20.0	25.0	13.0		Inhibition zone ([2]; 30 mg/6 mm disk): 8.5 mm
CCC1OC(=O)CC(O)C(C)C(OC2OC(C)C(O)C(N(C)C)C2O)C(CCn2cc(-c3ccccc3)nn2)CC(C)C(=O)C=CC(C)=CC1CO (stereo not drawn) [YT112, 20-(4-phenyl-1H-1,2,3-triazol-1-yl)-20-deoxo-5-O-mycaminosyltylonolide]		17.0	20.0	25.0	29.0	11.5		MICs ([3]; M. haemolytica isolate 1): 8 µg/mL; MICs ([3]; M. haemolytica isolate 2): 4 µg/mL; MICs ([3]; M. haemolytica isolate 3): 8 µg/mL; MICs ([4]; pleuropneumoniae isolate 1): 4 µg/mL; MICs ([4]; pleuropneumoniae isolate 2): 4 µg/mL; MICs ([4]; pleuropneumoniae isolate 3): 4 µg/mL; MICs ([4]; pleuropneumoniae isolate 4): 8 µg/mL; MICs ([4]; pleuropneumoniae isolate 5): 4 µg/mL; MICs ([4]; pleuropneumoniae isolate 6): 8 µg/mL
CC[C@H]1OC(=O)C[C@@H](O)[C@H](C)[C@@H](O[C@@H]2OC(C)[C@@H](O)C(N(C)C)C2O)[C@@H](CCNCCn2cc(-c3ccccc3[N+](=O)[O-])nn2)C[C@@H](C)C(=O)/C=C/C(C)=C/[C@@H]1CO (stereo partly drawn) [YT718]	8 (≈ 9.82 µM)						2 to 8 (≈ 2.45 to 9.82 µM)	

Continued, in another order:

MIC [4] [µg/mL]	SMILES	Inhibition zone ([1]; 3 mg/6 mm disk) [mm]	Inhibition zone ([1]; 10 mg/6 mm disk) [mm]	Inhibition zone ([1]; 30 mg/6 mm disk) [mm]	Inhibition zone ([1]; 100 mg/6 mm disk) [mm]	Inhibition zone ([2]; 100 mg/6 mm disk) [mm]	MIC [3] [µg/mL]	other results
8 (≈ 9.85 µM)	CC[C@H]1OC(=O)C[C@@H](O)[C@H](C)[C@@H](O[C@@H]2OC(C)[C@@H](O)C(N(C)C)C2O)[C@@H](CCNCCn2cc(-c3cc(C)c(C)cc3C)nn2)C[C@@H](C)C(=O)/C=C/C(C)=C/[C@@H]1CO (stereo partly drawn) [YT723]						2 to 8 (≈ 2.46 to 9.85 µM)	
8 (≈ 10.9 µM)	CC[C@H]1OC(=O)C[C@@H](O)[C@H](C)[C@@H](O[C@@H]2OC(C)[C@@H](O)C(N(C)C)C2O)[C@@H](CCn2cc(-c3ccsc3)nn2)C[C@@H](C)C(=O)/C=C/C(C)=C/[C@@H]1CO (stereo partly drawn) [YT726]						8 (≈ 10.9 µM)	
4 (≈ 5.14 µM)	CC[C@H]1OC(=O)C[C@@H](O)[C@H](C)[C@@H](O[C@@H]2OC(C)[C@@H](O)C(N(C)C)C2O)[C@@H](CCn2cc(-c3cnc4ccccc4c3)nn2)C[C@@H](C)C(=O)/C=C/C(C)=C/[C@@H]1CO (stereo partly drawn) [YT733]						2 to 4 (≈ 2.57 to 5.14 µM)	
2 to 4 (≈ 2.57 to 5.14 µM)	CC[C@H]1OC(=O)C[C@@H](O)[C@H](C)[C@@H](O[C@@H]2OC(C)[C@@H](O)C(N(C)C)C2O)[C@@H](CCn2cc(-c3ccc4ccccc4n3)nn2)C[C@@H](C)C(=O)/C=C/C(C)=C/[C@@H]1CO (stereo partly drawn) [YT734]						2 to 4 (≈ 2.57 to 5.14 µM)	
